This note sets out measurements from paper PMC3776780, “Dual p38/JNK Mitogen Activated Protein Kinase Inhibitors Prevent Ozone-Induced Airway Hyperreactivity in Guinea Pigs” (PLoS ONE, 2013).

SMILES strings stand for the structures. Like-named read-outs stand apart in the source and are kept apart here.

Holding throughout (experiment): spectrophotometric coupled-enzyme kinase inhibition assay
What all share (assay type): biochemical

Assay [1] addresses T1, MKK6 (Homo sapiens, UniProt P52564).
T1 sequence (P52564 1-334): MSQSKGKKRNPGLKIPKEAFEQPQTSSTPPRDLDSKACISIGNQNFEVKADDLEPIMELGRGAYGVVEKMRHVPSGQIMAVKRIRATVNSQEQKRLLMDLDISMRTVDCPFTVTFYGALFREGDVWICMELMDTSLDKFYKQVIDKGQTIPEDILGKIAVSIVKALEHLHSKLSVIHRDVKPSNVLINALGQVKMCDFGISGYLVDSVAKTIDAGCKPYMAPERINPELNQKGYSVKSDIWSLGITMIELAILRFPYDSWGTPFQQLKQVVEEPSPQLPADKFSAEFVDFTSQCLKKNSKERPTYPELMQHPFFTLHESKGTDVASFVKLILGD
As to conditions: read-out: Ki or IC50 MKK6. As to the method: (§1) Affinity was measured using a kinase inhibition assay. Compounds were assayed for the inhibition of various kinases using a modification of a spectrophotometric coupled-enzyme assay. In this assay, a fixed concentration of activated kinase (10–40 nM) was incubated with various concentrations of a potential inhibitor dissolved in DMSO for 10 minutes at 30°C in a buffer containing 0.1 M HEPES, pH 7.5, containing 10 mM MgCl2, 2.5 mM phosphoenolpyruvate, 200 µM NADH, 2 mM DTT, 30 µg/mL pyruvate kinase, 10 µg/mL lactate dehydrogenase, and 200 µM–500 µM EGF receptor peptide. The EGF receptor peptide has the sequence […]. The reaction was initiated by the addition of ATP equal to the ATP Km of the kinase, and the assay plate is inserted into the spectrophotometer’s assay plate compartment that was maintained at 30°C. The decrease of absorbance at 340 nm was monitored as a function of time for 10 minutes. The rate data as a function of inhibitor concentration was either fit as an IC50 or to a competitive inhibition kinetic model to determine the compound Ki (see table 1).

Assay [2] has as its target JNK1 (Homo sapiens, UniProt P45983). The settings on record: ATP equal to Km, 30°C. As to the method:
as §1

The target of assay [3] is SYK (Homo sapiens, UniProt P43405). The settings on record: read-out: Ki or IC50 SYK. The protocol: as §1
Assay [4] deals with T2, PRAK (Homo sapiens, UniProt Q8IW41).
T2 sequence (Q8IW41 1-473): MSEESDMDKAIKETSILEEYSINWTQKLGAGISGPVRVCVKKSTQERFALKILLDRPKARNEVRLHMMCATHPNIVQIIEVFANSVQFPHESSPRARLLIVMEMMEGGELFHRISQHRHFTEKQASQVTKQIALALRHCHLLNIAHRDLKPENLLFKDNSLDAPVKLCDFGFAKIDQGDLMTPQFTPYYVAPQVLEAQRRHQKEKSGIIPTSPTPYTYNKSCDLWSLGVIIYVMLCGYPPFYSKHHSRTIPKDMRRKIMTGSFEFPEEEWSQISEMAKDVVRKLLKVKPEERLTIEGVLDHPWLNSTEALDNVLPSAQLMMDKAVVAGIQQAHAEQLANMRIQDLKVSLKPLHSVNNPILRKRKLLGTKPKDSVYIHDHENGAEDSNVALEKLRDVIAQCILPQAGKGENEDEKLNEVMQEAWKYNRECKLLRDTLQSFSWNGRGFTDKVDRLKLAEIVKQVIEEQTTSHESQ
The settings on record: read-out: Ki or IC50 PRAK. The protocol:
as §1

The target of assay [5] is T3, JAK3 (Homo sapiens, UniProt P52333).
T3 sequence (P52333 1-1124): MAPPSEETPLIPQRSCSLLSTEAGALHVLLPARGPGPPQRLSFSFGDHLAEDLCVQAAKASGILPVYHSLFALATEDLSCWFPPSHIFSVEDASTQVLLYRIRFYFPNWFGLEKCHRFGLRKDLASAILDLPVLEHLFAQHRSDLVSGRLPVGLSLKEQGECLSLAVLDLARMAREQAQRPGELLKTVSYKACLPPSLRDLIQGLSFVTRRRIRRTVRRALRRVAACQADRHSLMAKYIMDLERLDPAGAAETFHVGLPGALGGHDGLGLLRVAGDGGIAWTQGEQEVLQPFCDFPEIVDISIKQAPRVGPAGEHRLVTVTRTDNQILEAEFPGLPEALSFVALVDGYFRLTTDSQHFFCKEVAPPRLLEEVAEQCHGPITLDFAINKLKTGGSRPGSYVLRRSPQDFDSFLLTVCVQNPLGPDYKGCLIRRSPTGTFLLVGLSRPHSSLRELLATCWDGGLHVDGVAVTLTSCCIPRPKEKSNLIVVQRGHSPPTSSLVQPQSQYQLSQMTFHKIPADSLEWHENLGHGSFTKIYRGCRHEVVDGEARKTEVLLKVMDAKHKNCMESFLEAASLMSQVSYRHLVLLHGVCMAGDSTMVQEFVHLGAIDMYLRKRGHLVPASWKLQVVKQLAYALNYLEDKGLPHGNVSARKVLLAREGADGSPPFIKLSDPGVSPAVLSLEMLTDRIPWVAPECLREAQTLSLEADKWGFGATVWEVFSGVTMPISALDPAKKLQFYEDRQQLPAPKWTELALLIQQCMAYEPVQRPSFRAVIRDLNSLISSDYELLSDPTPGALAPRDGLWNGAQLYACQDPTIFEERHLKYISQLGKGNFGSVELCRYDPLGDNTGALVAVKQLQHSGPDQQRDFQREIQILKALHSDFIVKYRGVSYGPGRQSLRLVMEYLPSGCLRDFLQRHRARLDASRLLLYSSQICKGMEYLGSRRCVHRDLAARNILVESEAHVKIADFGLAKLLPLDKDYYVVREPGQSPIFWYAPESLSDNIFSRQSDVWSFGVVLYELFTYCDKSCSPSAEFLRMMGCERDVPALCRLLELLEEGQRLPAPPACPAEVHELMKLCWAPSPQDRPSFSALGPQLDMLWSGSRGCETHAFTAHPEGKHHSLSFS
As to conditions: read-out: Ki or IC50 JAK3. As to the method:
as §1

In assay [6] the target is GSK3β (Homo sapiens, UniProt P49841). As to the method: as §1
For assay [7], the target named is IGF1R (Homo sapiens, UniProt P08069). The settings on record: read-out: Ki or IC50 IGF1R. The protocol:
as §1

Sequence of IGF1R (P08069 31-1367, species assumed): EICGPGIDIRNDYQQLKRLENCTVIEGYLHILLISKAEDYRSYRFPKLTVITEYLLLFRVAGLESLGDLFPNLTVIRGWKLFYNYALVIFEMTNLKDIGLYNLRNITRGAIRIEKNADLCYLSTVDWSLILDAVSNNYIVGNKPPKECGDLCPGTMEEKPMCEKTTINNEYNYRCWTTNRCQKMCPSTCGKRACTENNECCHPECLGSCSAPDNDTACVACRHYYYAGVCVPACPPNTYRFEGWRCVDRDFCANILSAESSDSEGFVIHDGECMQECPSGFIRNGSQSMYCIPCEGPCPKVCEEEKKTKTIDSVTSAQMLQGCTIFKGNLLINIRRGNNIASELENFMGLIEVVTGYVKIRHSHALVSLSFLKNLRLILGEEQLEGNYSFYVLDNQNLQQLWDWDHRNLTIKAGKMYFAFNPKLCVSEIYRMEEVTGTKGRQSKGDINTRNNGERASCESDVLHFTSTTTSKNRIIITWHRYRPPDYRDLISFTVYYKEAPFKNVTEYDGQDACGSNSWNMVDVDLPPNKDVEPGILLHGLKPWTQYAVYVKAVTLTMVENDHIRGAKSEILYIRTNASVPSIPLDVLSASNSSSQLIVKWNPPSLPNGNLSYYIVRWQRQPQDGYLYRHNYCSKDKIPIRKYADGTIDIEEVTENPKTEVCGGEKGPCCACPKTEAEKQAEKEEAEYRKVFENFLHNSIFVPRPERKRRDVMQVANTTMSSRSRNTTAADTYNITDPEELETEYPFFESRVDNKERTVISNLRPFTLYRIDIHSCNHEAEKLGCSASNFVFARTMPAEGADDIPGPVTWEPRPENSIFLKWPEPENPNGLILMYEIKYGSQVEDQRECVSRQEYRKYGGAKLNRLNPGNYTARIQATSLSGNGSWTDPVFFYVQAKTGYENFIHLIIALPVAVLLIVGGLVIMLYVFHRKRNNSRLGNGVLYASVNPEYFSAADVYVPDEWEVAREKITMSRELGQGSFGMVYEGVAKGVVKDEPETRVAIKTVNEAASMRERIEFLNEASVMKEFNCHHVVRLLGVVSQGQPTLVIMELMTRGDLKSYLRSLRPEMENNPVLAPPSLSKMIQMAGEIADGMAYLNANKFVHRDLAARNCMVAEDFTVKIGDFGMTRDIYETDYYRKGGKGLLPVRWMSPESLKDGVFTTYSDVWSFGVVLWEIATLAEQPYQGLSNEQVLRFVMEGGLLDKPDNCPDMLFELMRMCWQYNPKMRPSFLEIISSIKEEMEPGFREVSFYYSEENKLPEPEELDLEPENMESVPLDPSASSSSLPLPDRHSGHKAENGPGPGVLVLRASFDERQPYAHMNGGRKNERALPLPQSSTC
Sequence of GSK3β (P49841 whole entry, species assumed): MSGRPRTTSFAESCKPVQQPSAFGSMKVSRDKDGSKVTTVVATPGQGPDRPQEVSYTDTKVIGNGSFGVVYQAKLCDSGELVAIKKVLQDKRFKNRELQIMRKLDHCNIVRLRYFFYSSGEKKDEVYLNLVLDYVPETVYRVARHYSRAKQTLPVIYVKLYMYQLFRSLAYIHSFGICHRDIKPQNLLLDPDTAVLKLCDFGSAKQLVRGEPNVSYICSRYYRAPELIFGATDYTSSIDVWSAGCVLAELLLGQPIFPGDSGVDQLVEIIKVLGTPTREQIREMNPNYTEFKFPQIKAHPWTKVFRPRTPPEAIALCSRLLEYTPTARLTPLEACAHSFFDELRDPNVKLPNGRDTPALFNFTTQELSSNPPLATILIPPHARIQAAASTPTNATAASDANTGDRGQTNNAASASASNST
Sequence of JNK1 (P45983 whole entry, species assumed): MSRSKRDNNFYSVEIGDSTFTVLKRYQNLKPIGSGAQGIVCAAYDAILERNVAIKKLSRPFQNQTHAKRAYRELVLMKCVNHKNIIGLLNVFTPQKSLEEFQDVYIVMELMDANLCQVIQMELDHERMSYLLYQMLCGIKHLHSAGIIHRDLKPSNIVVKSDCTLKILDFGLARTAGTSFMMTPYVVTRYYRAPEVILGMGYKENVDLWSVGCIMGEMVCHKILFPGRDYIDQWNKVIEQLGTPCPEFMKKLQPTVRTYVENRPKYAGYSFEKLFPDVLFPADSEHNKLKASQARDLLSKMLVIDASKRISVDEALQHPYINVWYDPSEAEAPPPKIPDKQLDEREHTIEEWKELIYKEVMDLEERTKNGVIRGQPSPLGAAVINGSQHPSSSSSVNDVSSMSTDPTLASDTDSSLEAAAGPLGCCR

In the case of `OC[C@@H]1CCCN1Cc1onc(-c2ccc(F)cc2)c1-c1ccnc(NC2CCCCC2)n1` [V-05-014], the Ki (commonly the dissociation constant of the complex between target and ligand, obtained from inhibition or displacement) in assay [1] was greater than 1000 nM; in assay [2] it was 300 nM; in assay [3], greater than 1000 nM; in assay [4], greater than 1000 nM; in assay [5] it was greater than 1000 nM; in assay [6] (read-out: Ki or IC50 GSK3β), greater than 1000 nM. For the same compound, the Ki in assay [7] was greater than 1000 nM.
Take `Fc1ccc(-c2noc(CN3CCCCC3)c2-c2ccnc(NC3CCCCC3)n2)cc1` [V-05-015]: the Ki is greater than 1000 nM in assay [1]; 120 nM in assay [2]; greater than 1000 nM in assay [3]; greater than 1000 nM in assay [4]; greater than 1000 nM in assay [5]; greater than 1000 nM in assay [6] (read-out: Ki or IC50 GSK3β). Besides, in assay [7], the Ki is greater than 1000 nM.
Take `OC1CCN(Cc2onc(-c3ccc(F)cc3)c2-c2ccnc(NC3CCCCC3)n2)CC1` [V-05-013]: the inhibitory constant (Ki) in assay [1] was greater than 1000 nM; in assay [2], 170 nM; in assay [3], greater than 1000 nM; in assay [4] it was greater than 1000 nM; in assay [5], greater than 1000 nM; in assay [6] (read-out: GSK3β Ki) it was 730 nM. In assay [7], the Ki was greater than 1000 nM.
